According to US10993993B2, “Pharmaceutical composition for treating muscle atrophy or sarcopenia including glucagon-like peptide (GLP-1) or GLP-1 receptor agonist” (IMMUNOFORGE CO., LTD., priority 2015, dated 2021):
Entries after “also recorded” stand apart in the source; their conditions may differ. Ends that are not written are not given here.

Key:
[1] = tested on: muscle atrophy animal model (dexamethasone); experiment: Muscle mass of dexamethasone-treated mice given sitagliptin or GLP-1(32-36)amide (Example 3-1); assay type: in vivo, C57BL/6J male mice; conditions: dexamethasone 20 mg/kg i.p.; sitagliptin 300 mg/kg oral gavage, GLP-1(32-36)amide 5 μg/kg i.p.; FIG. 7
Description: (§1) The present inventors treated C57BL/6J male mice (n=10/group) with dexamethasone (20 mg/kg/i.p.) to reduce muscles of the mice, and they examined effects of sitagliptin (300 mg/kg/oral gavage) and GLP-1(32-36)amide (5 μg/kg/i.p.) on the body weights and muscles of the mice.

[2] = tested on: myostatin and MyoD; experiment: Myostatin and MyoD expression in dexamethasone-treated mice given sitagliptin or GLP-1(32-36)amide (Example 3-3); assay type: in vivo, C57BL/6J male mice; conditions: dexamethasone 20 mg/kg i.p.; sitagliptin 300 mg/kg oral gavage, GLP-1(32-36)amide 5 μg/kg i.p.; FIG. 9
Description: as §1, with “mice. Therefore, the present inventors examined a change in the expression level of myostatin, which is a cause of muscle atrophy, and a change in the expression level of the muscle-producing factor MyoD by sitagliptin and GLP-1(32-36)amide.” for “mice.”

[3] = tested on: muscle atrophy animal model (dexamethasone); experiment: Body weight of dexamethasone-treated mice given sitagliptin or GLP-1(32-36)amide (Example 3-1); assay type: in vivo, C57BL/6J male mice; conditions: dexamethasone 20 mg/kg i.p.; sitagliptin 300 mg/kg oral gavage, GLP-1(32-36)amide 5 μg/kg i.p.; FIG. 6
Description: as §1

[4] = tested on: muscle atrophy animal model (dexamethasone); experiment: Grip strength of dexamethasone-treated mice given sitagliptin or GLP-1(32-36)amide (Example 3-2); assay type: in vivo, C57BL/6J male mice; conditions: dexamethasone 20 mg/kg i.p.; sitagliptin 300 mg/kg oral gavage, GLP-1(32-36)amide 5 μg/kg i.p.; FIG. 8
Description: as §1, with “mice. In detail, the grip strength when all of the paws of the mouse of Example 6 were pulled with the same force was measured by a grip strength machine.” for “mice.”

[5] = tested on: dexamethasone-induced muscle atrophy or sarcopenia mice; experiment: Grip strength of dexamethasone-treated mice given long-acting GLP-1(7-36) (Example 2-2); assay type: in vivo, male C57BL6J mice; conditions: dexamethasone 20 mg/kg i.p., Trulicity 1 mg/kg s.c. two times per week, PB1023 3 mg/kg s.c. three times per week, after two weeks, FIGS. 11A and 11B
Description: (§2) Specifically, 10-week-old male C57BL6J mice were divided into 10 mice per group (total n=40), and saline and dexamethasone (20 mg/kg) were each intraperitoneally administered to the control and experimental groups each day. The grip strength of the mice was measured on day 9.
(§3) Subsequently, on day 11, the control mice were administered with saline three times per week by subcutaneous injection (Co-vehicle group), whereas the comparative mice were administered with either (i) saline three times per week by subcutaneous injection (Dex-vehicle group), (ii) Trulicity (SEQ ID NO: 5) two times per week by subcutaneous injection (1 mg/kg; Trulicity group), or (iii) PB1023 three times per week by subcutaneous injection (3 mg/kg; PB1023 group).
(§4) Thereafter, the grip strength was measured and a four limb hanging test was performed on day 14, and tissue sampling was performed on day 22.

[6] = tested on: dexamethasone-induced muscle atrophy or sarcopenia mice; experiment: Muscle mass of dexamethasone-treated mice given long-acting GLP-1(7-36) (Example 2-3); assay type: in vivo, male C57BL6J mice; conditions: dexamethasone 20 mg/kg i.p., Trulicity 1 mg/kg, PB1023 3 mg/kg s.c.; for total muscle mass: after three weeks, vs Dex-vehicle group, FIG. 12A
Description: as §2, §3, §4

[7] = tested on: muscle atrophy-induced mice (dexamethasone); experiment: Grip strength of muscle atrophy-induced mice treated with exendin-4 (Example 1-3); assay type: in vivo, C57BL/6J male mice; conditions: exendin-4 100 ng/mouse i.p. 12 days following dexamethasone 200 mg/kg i.p. 8 days; FIG. 3
Description: (§5) In detail, control mice which were not administered with dexamethasone or exendin-4, mice in which muscle atrophy was induced by intraperitoneal injection of dexamethasone (200 mg/kg) for 8 days, comparative mice which were intraperitoneally injected with exendin-4 (100 ng/mouse) for 12 days, and mice in which muscle atrophy was treated by intraperitoneal injection of exendin-4 (100 ng/mouse) for 12 days following intraperitoneal injection of dexamethasone (200 mg/kg) for 8 days were prepared. While these mice were raised for 20 days, changes in their body weights were measured (FIG. 1).
The control mice (control), dexamethasone-induced muscle atrophy mice, exendin-4-treated comparative mice, and muscle atrophy-treated mice treated with exendin-4 following treatment of dexamethasone, which were prepared in Example 1-1, were subjected to measurement of grip strength to investigate whether muscle functions were recovered (FIG. 3). In this regard, a force measured by a grip strength machine when all of the paws of a mouse were pulled with the same force was considered as the grip strength.

[8] = tested on: myostatin, atrogin-1, and MuRF1 in C2C12 myocytes; experiment: Expression of muscle atrophy-related genes in dexamethasone-treated C2C12 myocytes (Example 1-5); assay type: cell-based; conditions: 20 nM exendin-4 6 hours following 1 μM dexamethasone 12 hours, FIG. 5
Description: A myoblast cell line C2C12 was differentiated into myocytes by culturing in a medium containing 2% (v/v) horse serum for 5 days. Control myocytes (control) prepared from the differentiated myocytes without any treatment, myocytes in which muscle atrophy symptoms were induced by treatment of 1 μM dexamethasone for 12 hours, comparative myocytes treated with 20 nM exendin-4 for 6 hours, and experimental myocytes in which muscle atrophy symptoms were treated with 20 nM exendin-4 for 6 hours following treatment of 1 μM dexamethasone for 12 hours were each prepared. Expression levels of muscle atrophy-related genes (myostatin, atrogin-1, and MuRF1) were compared in each of the myocytes (FIG. 5).

[9] = tested on: muscle atrophy-induced mice (dexamethasone); experiment: Body weight of dexamethasone-induced muscle atrophy mice treated with exendin-4 (Example 1-1); assay type: in vivo, C57BL/6J male mice; conditions: exendin-4 100 ng/mouse i.p. 12 days following dexamethasone 200 mg/kg i.p. 8 days; vs dexamethasone alone; from day 11; FIG. 1
Description: It is known that muscle atrophy is caused by chronic diseases (chronic renal failure, chronic heart failure, chronic obstructive disease, etc.), and caused by administration of a high dose of a drug such as dexamethasone. Thus, animal models (C57BL/6J male mice) were treated with dexamethasone to prepare sarcopenia models. When sarcopenia occurred, effects of exendin-4 were investigated.
as §5

[10] = tested on: muscle atrophy-induced mice (dexamethasone); experiment: Skeletal muscle weights of muscle atrophy-induced mice treated with exendin-4 (Example 1-2); assay type: in vivo, C57BL/6J male mice; conditions: exendin-4 100 ng/mouse i.p. 12 days following dexamethasone 200 mg/kg i.p. 8 days; FIG. 2
Description: as §5
The control mice (control), dexamethasone-induced muscle atrophy mice, exendin-4-treated comparative mice, and muscle atrophy-treated mice treated with exendin-4 following treatment of dexamethasone, which were prepared in Example 1-1, were sacrificed, and total weights of the skeletal muscles of the respective mice were measured. Quadratus muscles, gastrocnemus muscles, tibialis anterior muscles, soleus muscles, and extensor digitorum longus muscles constituting the skeletal muscles were each separated, and their weights were compared (FIG. 2).

[11] = tested on: myostatin, atrogin-1, MuRF1, MyoD and myogenin genes; experiment: Expression of muscle protein-destroying and -producing genes in muscle tissue, PCR (Example 1-4); assay type: in vivo, C57BL/6J male mice; conditions: exendin-4 following dexamethasone, FIG. 4
Description: as §5
It is known that when muscle atrophy occurs, expression of muscle protein-destroying genes (myostatin, atrogin-1, and MuRF1) is increased and expression of muscle protein-producing genes (MyoD and myogenin) is decreased; thus, this was to be examined That is, muscle tissues were removed from the control mice (control), dexamethasone-induced muscle atrophy mice, exendin-4-treated comparative mice, and muscle atrophy-treated mice treated with exendin-4 following treatment of dexamethasone, which were prepared in Example 1-1, and total RNAs were obtained from the muscle tissues. cDNAs were synthesized therefrom, each gene was amplified from the synthesized cDNA by PCR, and changes in the expression levels thereof were compared (FIG. 4).

Compound: N[C@@H](CC(=O)N1CCn2c(nnc2C(F)(F)F)C1)Cc1cc(F)c(F)cc1F [sitagliptin]
- muscle mass [1]: increased
- MyoD expression [2]: increased again
- myostatin expression [2]: decreased again
- body weight [3]: increased
- grip strength [4]: increased again

Compound: GLP-1(32-36)amide (LVKGR-NH2)
- muscle mass [1]: increased
- MyoD expression [2]: increased again
- myostatin expression [2]: decreased again
- body weight [3]: increased
- grip strength [4]: increased again

Compound: dulaglutide [Trulicity]
- grip strength [5]: improved to a significant level
- grip strength ([5]; listed as dulaglutide): enhanced
- muscle mass of EDL (Extensor digitorum longus) and QD (Quadratus) ([6]; B to F of FIG. 12): statistical significance was confirmed by an increase in muscle mass
- muscle mass of TA (Tibialis anterior), Sol (Soleus), and GA (Gastrocnemius) ([6]; B to F of FIG. 12): tendency of increasing muscle mass
- total muscle mass [6]: significantly increased compared to the Dex-vehicle group
- total muscle mass ([6]; listed as dulaglutide): muscle mass was increased

Compound: exendin-4
- grip strength [7]: remarkably higher level of grip strength than the muscle atrophy-induced mice; also recorded: reduced grip strength was restored
- expression levels of muscle atrophy-related genes (myostatin, atrogin-1, and MuRF1) [8]: remarkably decreased expression levels
- body weight [9]: increase in the body weight was observed; also recorded: reduced body weight was restored
- skeletal muscle mass (all kinds of skeletal muscles) [10]: increased muscle mass similar to that of the control or comparative group; also recorded: reduced skeletal muscle mass was restored
- relative expression levels of muscle protein-destroying genes (myostatin, atrogin-1, and MuRF1) [11]: lowest relative expression levels; also recorded: decreased
- relative expression levels of muscle protein-producing genes (MyoD and myogenin) [11]: highest relative expression levels; also recorded: increased
